Molecules are shown by their SMILES. A value given as a limit tells only on which side of the number the result lay.

The assay deals with IRAK4 (Homo sapiens (Human), UniProt Q9NWZ3). The experiment in a line: In vitro IRAK4 phosphorylation activity assay. The settings on record: [γ-33P]-ATP, myelin basic protein substrate, 40 minutes at room temperature; categories. The assay is classed as biochemical. Put shortly: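 Radiometric filter-binding assay, no compound–kinase preincubation; 8 mM MOPS pH 7.0, 0.2 mM EDTA, 10 mM Mg acetate, 0.33 mg/mL myelin basic protein substrate, [γ-33P]-ATP. Reaction 40 min at room temperature, stopped with phosphoric acid, scintillation counting; IC50 reported in categories.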
Chain of IRAK4 (Q9NWZ3 whole entry): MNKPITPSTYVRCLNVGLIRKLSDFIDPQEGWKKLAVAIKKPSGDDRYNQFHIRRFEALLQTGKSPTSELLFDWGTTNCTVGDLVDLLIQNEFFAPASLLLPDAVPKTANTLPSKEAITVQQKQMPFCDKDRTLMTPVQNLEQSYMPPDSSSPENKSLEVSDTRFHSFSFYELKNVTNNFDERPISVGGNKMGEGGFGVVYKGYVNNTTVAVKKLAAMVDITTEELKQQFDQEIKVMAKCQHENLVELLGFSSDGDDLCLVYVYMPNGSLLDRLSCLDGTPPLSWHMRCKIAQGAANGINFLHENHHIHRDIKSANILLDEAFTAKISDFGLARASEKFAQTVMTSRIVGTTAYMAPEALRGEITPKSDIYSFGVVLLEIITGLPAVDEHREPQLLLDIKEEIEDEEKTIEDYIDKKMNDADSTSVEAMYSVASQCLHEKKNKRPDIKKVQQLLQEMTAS
On to `Cn1cc(-c2cccc(C(=O)Nc3nc(CCCC(=O)N4CC[C@@H](N)C4)cn3-c3ccccc3)c2)cn1` [Example 212, (R)—N-(4-(4-(3-aminopyrrolidin-1-yl)-4-oxobutyl)-1-phenyl-1H-imidazol-2-yl)-3-(1-methyl-1H-pyrazol-4-yl)benzamide], for which the 50% inhibitory concentration (IC50) was < 50 nM.

As to `COC[C@@H]1CCCN1NC(=O)CCCCCc1cn(-c2ccccc2)c(NC(=O)c2cccc(-c3cn[nH]c3)c2)n1` [Example 98, (S)—N-(4-(6-((2-(methoxymethyl)pyrrolidin-1-yl)amino)-6-oxohexyl)-1-phenyl-1H-imidazol-2-yl)-3-(1H-pyrazol-4-yl)benzamide], the half-inhibitory concentration (IC50) was < 50 nM.

As to `O=C(CCc1cn(-c2ccccc2)c(NC(=O)c2cccc(-c3cnoc3)c2)n1)Nc1ccccc1` [Example 5, 3-(isoxazol-4-yl)-N-(4-(3-oxo-3-(phenylamino)propyl)-1-phenyl-1H-imidazol-2-yl)benzamide], the IC50 was > 100 nM.

Regarding `O=C(CCCc1cn(-c2ccccc2)c(NC(=O)c2cccc(-c3cccc4[nH]ncc34)c2)n1)NC1CC1` [Example 249, N-(4-(4-(cyclopropylamino)-4-oxobutyl)-1-phenyl-1H-imidazol-2-yl)-3-(1H-indazol-4-yl)benzamide], the 50% inhibitory concentration (IC50) is < 50 nM.

With `CNC(=O)Cc1cn(-c2ccccc2)c(NC(=O)c2ccc3[nH]ncc3c2)n1` [Example 49, N-(4-(2-(methylamino)-2-oxoethyl)-1-phenyl-1H-imidazol-2-yl)-1H-indazole-5-carboxamide], the IC50 was > 100 nM.

Take `Cn1cc(-c2cccc(C(=O)Nc3nc(CCC(=O)Nc4ccccc4)cn3-c3ccccc3)c2)cn1` [Example 193, 3-(1-methyl-1H-pyrazol-4-yl)-N-(4-(3-oxo-3-(phenylamino)propyl)-1-phenyl-1H-imidazol-2-yl)benzamide]: the half-inhibitory concentration (IC50) is 50 to 100 nM.

Turning to `O=C(CCc1cn(-c2cccc(Br)c2)c(NC(=O)c2cccc(-c3cn[nH]c3)c2)n1)Nc1ccccc1` [Example 294, N-(1-(3-bromophenyl)-4-(3-oxo-3-(phenylamino)propyl)-1H-imidazol-2-yl)-3-(1H-pyrazol-4-yl)benzamide], the IC50 was in the range of 50 to 100 nM.

In the case of `Cn1cc(-c2cccc(C(=O)Nc3nc(CCCCCC(=O)N4CCCCC4)cn3-c3ccccc3)c2)cn1` [Example 200, 3-(1-methyl-1H-pyrazol-4-yl)-N-(4-(6-oxo-6-(piperidin-1-yl)hexyl)-1-phenyl-1H-imidazol-2-yl)benzamide], the half-inhibitory concentration (IC50) is < 50 nM.

For the compound `CCN1CCN(C(=O)CCCc2cn(-c3ccccc3)c(NC(=O)c3cccc(-c4cnn(C)c4)c3)n2)CC1` [Example 144, N-(4-(4-(4-ethylpiperazin-1-yl)-4-oxobutyl)-1-phenyl-1H-imidazol-2-yl)-3-(1-methyl-1H-pyrazol-4-yl)benzamide], the 50% inhibitory concentration (IC50) is < 50 nM.

With `CN1CCN(CCNC(=O)CCCc2cn(-c3ccccc3)c(NC(=O)c3cccc(-c4cnn(C)c4)c3)n2)CC1` [Example 187, 3-(1-methyl-1H-pyrazol-4-yl)-N-(4-(4-((2-(4-methylpiperazin-1-yl)ethyl)amino)-4-oxobutyl)-1-phenyl-1H-imidazol-2-yl)benzamide], the IC50 was < 50 nM.

On to `O=C(O)CCCCCc1cn(-c2ccccc2)c(NC(=O)c2cccc(-c3cn[nH]c3)c2)n1` [Example 92, 6-(2-(3-(1H-pyrazol-4-yl)benzamido)-1-phenyl-1H-imidazol-4-yl)hexanoic acid], for which the IC50 was < 50 nM.

`COC[C@@H]1CCCN1NC(=O)CCCc1cn(-c2ccccc2)c(NC(=O)c2cccc(-c3cn[nH]c3)c2)n1` [Example 53, (S)—N-(4-(4-((2-(methoxymethyl)pyrrolidin-1-yl)amino)-4-oxobutyl)-1-phenyl-1H-imidazol-2-yl)-3-(1H-pyrazol-4-yl)benzamide]: the concentration for half-maximal inhibition (IC50) was < 50 nM.

For `COC[C@H]1CCCN1C(=O)CCCc1cn(-c2ccccc2)c(NC(=O)c2cccc(-c3cn[nH]c3)c2)n1` [Example 56, (R)—N-(4-(4-(2-(methoxymethyl)pyrrolidin-1-yl)-4-oxobutyl)-1-phenyl-1H-imidazol-2-yl)-3-(1H-pyrazol-4-yl)benzamide], the IC50 was < 50 nM.

Consider `O=C(Nc1nc(CCCCCCN2CCCCC2)cn1-c1ccccc1)c1cccc(-c2ccc3[nH]ccc3c2)c1` [Example 253, 3-(1H-indol-5-yl)-N-(1-phenyl-4-(6-(piperidin-1-yl)hexyl)-1H-imidazol-2-yl)benzamide], for which the half-inhibitory concentration (IC50) was 50 to 100 nM.

On to `Cn1cc(-c2cccc(C(=O)Nc3nc(CCCCC(=O)N4CCC[C@H](C(=O)O)C4)cn3-c3ccccc3)c2)cn1` [Example 208, (S)-1-(5-(2-(3-(1-methyl-1H-pyrazol-4-yl)benzamido)-1-phenyl-1H-imidazol-4-yl)pentanoyl)piperidine-3-carboxylic acid], for which the concentration for half-maximal inhibition (IC50) is < 50 nM.

For the compound `CNC(=O)CCCc1cn(-c2ccccc2)c(NC(=O)c2cccc(-c3ccc4[nH]ncc4c3)c2)n1` [Example 244, 3-(1H-indazol-5-yl)-N-(4-(4-(methylamino)-4-oxobutyl)-1-phenyl-1H-imidazol-2-yl)benzamide], the 50% inhibitory concentration (IC50) is < 50 nM.

For the compound `CN(C)C1CCN(C(=O)CCCc2cn(-c3ccccc3)c(NC(=O)c3cccc(-c4ccc5scnc5c4)c3)n2)CC1` [Example 282, 3-(benzo[d]thiazol-5-yl)-N-(4-(4-(4-(dimethylamino)piperidin-1-yl)-4-oxobutyl)-1-phenyl-1H-imidazol-2-yl)benzamide], the IC50 is > 100 nM.

Turning to `O=C(CCCc1cn(-c2ccccc2)c(NC(=O)c2cccc(-c3ccc4scnc4c3)c2)n1)NC1CC1` [Example 283, 3-(benzo[d]thiazol-5-yl)-N-(4-(4-(cyclopropylamino)-4-oxobutyl)-1-phenyl-1H-imidazol-2-yl)benzamide], the IC50 is > 100 nM.

Consider `O=C(Nc1nc(CCCCN2CCCCC2)cn1-c1ccccc1)c1cccc(-c2ccc3[nH]ncc3c2)c1` [Example 256, 3-(1H-indazol-5-yl)-N-(1-phenyl-4-(4-(piperidin-1-yl)butyl)-1H-imidazol-2-yl)benzamide], for which the half-maximal inhibitory concentration (IC50) is < 50 nM.

Take `O=C(Nc1nc(CCCCCCN2CCCCC2)cn1-c1ccc(F)cc1)c1cccc(-c2cn[nH]c2)c1` [Example 301, N-(1-(4-fluorophenyl)-4-(6-(piperidin-1-yl)hexyl)-1H-imidazol-2-yl)-3-(1H-pyrazol-4-yl)benzamide]: the IC50 is < 50 nM.

As for `O=C(Nc1nc(CCCCC(=O)N2CCCCC2)cn1-c1ccccc1)c1cccc(-c2cn[nH]c2)c1` [Example 79, N-(4-(5-oxo-5-(piperidin-1-yl)pentyl)-1-phenyl-1H-imidazol-2-yl)-3-(1H-pyrazol-4-yl)benzamide], the IC50 is < 50 nM.

Regarding `CN(C)C1CCN(C(=O)CCCc2cn(-c3ccccc3)c(NC(=O)c3cccc(-c4ccc5ncsc5c4)c3)n2)CC1` [Example 281, 3-(benzo[d]thiazol-6-yl)-N-(4-(4-(4-(dimethylamino)piperidin-1-yl)-4-oxobutyl)-1-phenyl-1H-imidazol-2-yl)benzamide], the IC50 was < 50 nM.

Consider `CNC(=O)CCCc1cn(-c2ccccc2)c(NC(=O)c2cccc(-c3ccncc3)c2)n1` [Example 266, N-(4-(4-(methylamino)-4-oxobutyl)-1-phenyl-1H-imidazol-2-yl)-3-(pyridin-4-yl)benzamide], for which the IC50 is < 50 nM.

Broadly, the IC50 is the concentration needed to halve the response being measured.

The values are drawn from patent US12534452B2, “N-(1H-imidazol-2-yl)benzamide compound and pharmaceutical composition comprising the same as active ingredient” (KAINOS MEDICINE, INC., priority 2019, dated 2026).
